Results on two compounds are retold here after patent US9949938B2, “CoQ10 (ubiquinone, ubiquinol), vitamin A (retinoid acid, retinol), vitamin E (tocotrienol, tocopherol) and methods of use” (AMERICAN RIVER NUTRITION, priority 2013, dated 2018).

The conditions of data set [1]: gastric conditions, pH<2, 30 minutes; cited from earlier work.
The nature of data set [2]: CoQ10 with and without tocotrienol in hydrochloric acid (pH<2), 30 minutes, simulated gastric conditions. The format is physicochemical. The following applies: in the presence of tocotrienol versus without; HCl pH<2, 30 minutes. As to the method:
100 mg CoQ10 (ubiquinone or ubiquinol), with and without tocotrienol, was placed in a beaker with acid (hydrochloric acid) (pH<2) for 30 minutes to simulate gastric conditions.

With `COc1c(O)c(C)c(C/C=C(\C)CC/C=C(\C)CC/C=C(\C)CC/C=C(\C)CC/C=C(\C)CC/C=C(\C)CC/C=C(\C)CC/C=C(\C)CC/C=C(\C)CCC=C(C)C)c(O)c1OC` [ubiquinol], the “ubiquinol converted to ubiquinone” value in data set [1] was “about 50%”.
With `COC1=C(OC)C(=O)C(C/C=C(\C)CC/C=C(\C)CC/C=C(\C)CC/C=C(\C)CC/C=C(\C)CC/C=C(\C)CC/C=C(\C)CC/C=C(\C)CC/C=C(\C)CCC=C(C)C)=C(C)C1=O` [CoQ10, 2,3-dimethoxy-5-methyl-6-decaprenil-1,4-benzoquinone], the “CoQ10 content (both ubiquinone or ubiquinol) after acid” value in data set [2] is reported as “higher content”.
